Source: patent US20020055528A1, “Artemisinin analogs having antimalarial, antiproliferative, and antitumor activities and chemoselective methods of making the same” (priority 1999, published 2002)
Like-named read-outs stand apart in the source and are kept apart here.

Columns and labels:
[1] = system: MOLT-4
Procedure: The screening assay is performed on 96-well microtitre plates. Relatively high initial inoculation densities are used, in order to permit measurement of “time-zero” values and to enhance the screen's ability to detect and provide some differentiation between antiproliferative and cytotoxic response parameters. […] The inoculated microtitre plates are pre-incubated for 24 hours at 37θC prior to drug additions. The five drug dilutions tested routinely range from 10^−4 to 10^−8 molar. Higher or lower concentration ranges may be selected on a nonroutine basis if appropriate solubility and/or prior biological information or other screening data so dictate. Duplicate wells are prepared for all concentrations, (concentration is often denoted by placing brackets around a number); “time-zero” and “no drug” controls are also provided for each test. The minimum amount of compound required for a one-time evaluation in the routine screen can be calculated from the knowledge that each test requires a total of approximately 40 ml (0.04 liter) of cell culture medium containing the highest desired drug concentration. Thus, the amount (grams) of sample required (assuming an upper test concentration limit of 10^−4 M) is: molecular weight of compound×[…]. After a 48 hour incubation (37θC) with the test compound, the cells are fixed in situ to the bottoms of the microtitre wells by addition of 50 ul of either 50% trichloroacetic acid (for adherent cell lines) or 80% trichloroacetic acid (for settled cell suspension lines), followed by incubation for 60 minutes at 4θC. The cellular protein in each well is assayed using a sulforhodamine B (SRB) stain procedure. Briefly, after discarding the supernatants, the microtitre plates are washed 5 times with deionized water and air-dried. One hundred microliters of SRB solution (0.4% w/v in 1% acetic acid) is added to each microtitre well and incubated for 10 minutes at room temperature. Unbound SRB is removed by washing 5 times with 1 % acetic acid. The plates are air-dried, the bound stain is solubilized with Tris buffer, and the optical densities read at 515 nm. SRB is a bright pink anionic dye which, in dilute acetic acid, binds electrostatically to the basic amino acids of TCA-fixed cells. Cryopreserved master stocks of all the lines are maintained, and cultures used for screening are replaced from the master stock after no more than twenty passages in the screening laboratory. The cell line panel consists of 60 lines, organized into nine, disease-related subpanels including leukemia, non-small-cell lung cancer, colon, CNS, melanoma, ovarian, renal, prostate and breast cancers.
The response parameters G150 and LC50 are interpolated values representing the concentrations at which the percentage growth (PG) is +50 and −50, respectively:
GI50 is the concentration for which the PG=+50. At this value the increase from time tzero, in the number or mass of cells in the test well is only 50% as much as the corresponding increase in the control well during this period of the experiment, see Table II. A drug effect of this intensity is interpreted as primary growth inhibition.
TGI is the concentration for which PG=0. At this value the number or mass of cells in the well at the end of the experiment equals the number or mass of cells in the well at time tzero, see Table III. A drug effect of this intensity is regarded as cytostasis.
LC50 is the concentration for which the PG=−50. At this value, the number or mass of cells in the test well at the end of the experiment is half that at time tzero, see Table IV. This is interpreted as cytotoxicity.

[2] = system: EKVX; experiment: NCI 60 cell line screen (SRB), Non-Small Cell Lung Cancer; type: cell-based
[3] = system: HOP-62; experiment: as above; type: cell-based
[4] = system: NCI-H226; experiment: as above; type: cell-based
[5] = system: HCT-15; experiment: NCI 60 cell line screen (SRB), Colon Cancer; type: cell-based
[6] = system: SW-620; experiment: NCI 60 cell line screen (SRB), Colon Cancer; type: cell-based
[7] = system: SNB-75; experiment: NCI 60 cell line screen (SRB), CNS Cancer; type: cell-based
[8] = system: U251; experiment: NCI 60 cell line screen (SRB), CNS Cancer; type: cell-based
[9] = system: MALME-3M; experiment: NCI 60 cell line screen (SRB), Melanoma; type: cell-based
[10] = system: SK-MEL2; experiment: NCI 60 cell line screen (SRB), Melanoma; type: cell-based
[11] = system: IGROVI; experiment: NCI 60 cell line screen (SRB), Ovarian Cancer; type: cell-based
[12] = system: OVCAR-3; experiment: NCI 60 cell line screen (SRB), Ovarian Cancer; type: cell-based; settings: PG=0
[13] = system: 786-0; experiment: NCI 60 cell line screen (SRB), Renal Cancer; type: cell-based
[14] = system: A498; experiment: NCI 60 cell line screen (SRB), Renal Cancer; type: cell-based
[15] = system: CAKI-1; experiment: NCI 60 cell line screen (SRB), Renal Cancer; type: cell-based
[16] = system: SN12C; experiment: NCI 60 cell line screen (SRB), Renal Cancer; type: cell-based
[17] = system: TK-10; experiment: NCI 60 cell line screen (SRB), Renal Cancer; type: cell-based
[18] = system: MCF7; experiment: NCI 60 cell line screen (SRB), Breast Cancer; type: cell-based
[19] = system: NCI/ADR-RES; experiment: NCI 60 cell line screen (SRB), Breast Cancer; type: cell-based
[20] = system: HS 578T; experiment: NCI 60 cell line screen (SRB), Breast Cancer; type: cell-based
[21] = system: MDA-N; experiment: NCI 60 cell line screen (SRB), Breast Cancer; type: cell-based

## CC1=C(C=Cc2cccc(C=CC3=C(C)C4CCC(C)C5CCC6(C)OOC45C(O3)O6)c2)OC2OC3(C)CCC4C(C)CCC1C24OO3 (stereo not drawn) [VII-g]
[1]
  drug concentration for cytotoxicity (percentage growth −50): greater than 10^−4 M
[1]; MOLT-4, FIGS. 6a-6e
  drug concentration for primary growth inhibition (percentage growth +50): > 10^−7 molar
[1]; MOLT-4, PG=+50
  Log10GI50: −7.30 log10M
[1]; MOLT−4, PG=0
  Log10TGI: −7.30 log10M
[1]; Table IV (LC50, PG=−50), MOLT−4
  Log10GI50: >−4.00 log10M
[2]; PG=0
  Log10TGI: >−4.00 log10M
[2]; PG=+50
  Log10GI50: −7.17 log10M
[2]; Table IV (LC50, PG=−50)
  Log10GI50: >−4.00 log10M
[3]; PG=0
  Log10TGI: >−4.00 log10M
[3]; PG=+50
  Log10GI50: −6.45 log10M
[3]; Table IV (LC50, PG=−50)
  Log10GI50: >−4.00 log10M
[4]; PG=0
  Log10TGI: >−4.00 log10M
[4]; PG=+50
  Log10GI50: −4.91 log10M
[4]; Table IV (LC50, PG=−50)
  Log10GI50: >−4.00 log10M
[5]; PG=0
  Log10TGI: −4.88 log10M
[5]; PG=+50
  log10 GI50 (PG=+50) or LC50 (PG=−50), per row condition: −7.05 log10M
[5]; Table IV (LC50, PG=−50)
  log10 GI50 (PG=+50) or LC50 (PG=−50), per row condition: >−4.00 log10M
[6]; PG=0
  Log10TGI: >−4.00 log10M
[6]; PG=+50
  Log10GI50: −7.22 log10M
[7]; PG=+50
  Log10 GI50 (PG=+50) or LC50 (PG=−50): −6.45 log10M
[7]; Table IV (LC50, PG=−50)
  Log10 GI50 (PG=+50) or LC50 (PG=−50): >−4.00 log10M
[8]; PG=0
  Log10TGI: >−4.00 log10M
[8]; PG=+50
  Log10GI50: −6.86 log10M
[8]; Table IV (LC50, PG=−50)
  Log10GI50: >−4.00 log10M
[9]; PG=0
  Log10TGI: −4.24 log10M
[9]; PG=+50
  Log10GI50: −6.60 log10M
[9]; Table IV (LC50, PG=−50)
  Log10GI50: >−4.00 log10M
[10]; PG=0
  Log10TGI: >−4.00 log10M
[10]; PG=+50
  Log10 GI50 or LC50 (per conditions): −6.39 log10M
[10]; Table IV (LC50, PG=−50)
  Log10 GI50 or LC50 (per conditions): >−4.00 log10M
[11]; PG=0
  Log10TGI: −4.21 log10M
[11]; PG=+50
  Log10GI50: −5.16 log10M
[11]; Table IV (LC50, PG=−50)
  Log10GI50: >−4.00 log10M
[12]
  Log10TGI: >−4.00 log10M
[13]; PG=0
  Log10TGI: >−4.00 log10M
[13]; PG=+50
  Log10GI50: −6.10 log10M
[13]; Table IV (LC50, PG=−50)
  Log10GI50: >−4.00 log10M
[14]; PG=0
  Log10TGI: −4.05 log10M
[14]; PG=+50
  Log10GI50: −6.04 log10M
[14]; Table IV (LC50, PG=−50)
  Log10GI50: >−4.00 log10M
[15]; PG=+50
  Log10GI50: −6.22 log10M
[15]; Table IV (LC50, PG=−50)
  Log10GI50: >−4.00 log10M
[16]; SN12C, PG=0
  Log10TGI: >−4.00 log10M
[16]; SNI2C, PG=+50
  Log10GI50: −6.69 log10M
[16]; Table IV (LC50, PG=−50), SN12C
  Log10GI50: >−4.00 log10M
[17]; PG=0
  Log10TGI: >−4.00 log10M
[17]; PG=+50
  Log10GI50: −6.48 log10M
[17]; Table IV (LC50, PG=−50)
  Log10GI50: >−4.00 log10M
[18]; PG=0
  Log10TGI: >−4.00 log10M
[18]; PG=+50
  Log10GI50: −6.63 log10M
[18]; Table IV (LC50, PG=−50)
  Log10GI50: >−4.00 log10M
[19]; PG=0
  Log10TGI: >−4.00 log10M
[19]; PG=+50
  Log10GI50: −5.27 log10M
[19]; Table IV (LC50, PG=−50)
  Log10GI50: >−4.00 log10M
[20]; PG=0
  Log10TGI: −4.32 log10M
[20]; PG=+50
  Log10GI50: −7.14 log10M
[20]; Table IV (LC50, PG=−50)
  Log10GI50: >−4.00 log10M
[21]; PG=0
  Log10TGI: −4.83 log10M
[21]; PG=+50
  Log10GI50: −6.82 log10M
[21]; Table IV (LC50, PG=−50)
  Log10GI50: >−4.00 log10M
